Measured values from publication PMC6491728, “Application of in vitro Drug Metabolism Studies in Chemical Structure Optimization for the Treatment of Fibrodysplasia Ossificans Progressiva (FOP)” (Frontiers in Pharmacology, 2019).
In brackets after ≈: the same amount, converted by molar mass. Where two headings read alike, the source gives them in different places.

Tests used:
[1] = Metabolite profiling in human liver microsomes and cytosol (LC/UV/MS, inhibitors, trapping)
ALK5 = molecular target: T1, ALK5 (Mus musculus, UniProt Q64729); test: TGFβ-stimulated SMAD2/3 phosphorylation in C2C12 cells (HTRF); format: cell-based
T1 construct: determined in C2C12 cell lines (ATCC; Manassas, VA, United States); host or cells: C2C12
T1 sequence (Q64729 30-503): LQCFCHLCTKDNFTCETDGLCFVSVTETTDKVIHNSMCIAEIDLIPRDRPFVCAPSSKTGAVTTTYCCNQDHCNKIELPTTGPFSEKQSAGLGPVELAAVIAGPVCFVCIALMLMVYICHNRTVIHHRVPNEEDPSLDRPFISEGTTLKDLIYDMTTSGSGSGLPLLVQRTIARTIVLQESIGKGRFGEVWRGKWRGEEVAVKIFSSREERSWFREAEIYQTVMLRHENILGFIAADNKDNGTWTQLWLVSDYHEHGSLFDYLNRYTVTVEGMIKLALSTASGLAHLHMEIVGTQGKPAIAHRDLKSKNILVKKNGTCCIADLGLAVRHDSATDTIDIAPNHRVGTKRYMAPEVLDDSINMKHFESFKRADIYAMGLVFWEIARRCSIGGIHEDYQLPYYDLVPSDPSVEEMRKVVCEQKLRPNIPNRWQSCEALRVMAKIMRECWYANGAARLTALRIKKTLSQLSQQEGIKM
Method: (§1) The in vitro activity toward to ALK2 and the selectivity over ALK3 and ALK5 were determined in C2C12 cell lines (ATCC; Manassas, VA, United States) through measuring the phosphorylation level of SMAD1/5/8 (for ALK2 and ALK3) or SMAD2/3 (for ALK5) under the stimulation of BMP6 (mediated by ALK2), BMP4 (mediated by ALK3) and TGFβ (mediated by ALK5), respectively, by using homogeneous time resolved fluorescence (HTRF; a manuscript in preparation).

[2] = In vitro metabolic stability screening assay with rat liver microsomes; format: in vitro ADME; details: rat liver microsomes 0.5 mg/mL, 1 μM compound, single time point 15 min, 37°C; read-out: Microsomal Stability t1/2
Method: In vitro metabolic stability screening assay was conducted with rat liver microsomes in a 96-well plate, where 1 μM of compound was incubated with 0.5 mg/mL of rat liver microsomal protein. A single time point was collected at 15 min after an incubation at 37°C. […] When the half-life was greater than 30 min, results were presented as >30 min.

[3] = Kinetic solubility (μSOL Evolution, pH 7.4 phosphate buffer); format: physicochemical; details: pH 7.4, aqueous buffer, kinetic from dmso stock
Method: Kinetic solubility was measured using the μSOL Evolution system from pION Inc. (Billerica, MA, United States). Saturation shake-flask solubility method was adapted as previously described ([Avdeef and Berger, 2001]). Briefly, 10 mM DMSO stock was diluted to a final drug concentration of 150 μM in the aqueous solution (pH 7.4, 100 mM phosphate buffer) in duplicates. The solution was kept at room temperature for 6 h for equilibration. After equilibration, precipitates were removed using Tecan Te-Vac vacuum-filter and the compound concentration was measured by UV absorbance (λ: 250–498 nm). Data was compared to a fully solubilized reference solution of the test article at 17 μM in spectroscopically pure n-propanol. The kinetic solubility (μg/mL) was calculated using the μSOL Evolution software.

ALK2 = molecular target: T2, ALK2 (Mus musculus, UniProt P37172); test: BMP6-stimulated SMAD1/5/8 phosphorylation in C2C12 cells (HTRF); format: cell-based; details: for IC50: C2C12 cells, SMAD1/5/8 phosphorylation, HTRF, read-out: BMP6 (mediated by ALK2) IC50
T2 construct: determined in C2C12 cell lines (ATCC; Manassas, VA, United States); host or cells: C2C12
T2 sequence (P37172 21-509): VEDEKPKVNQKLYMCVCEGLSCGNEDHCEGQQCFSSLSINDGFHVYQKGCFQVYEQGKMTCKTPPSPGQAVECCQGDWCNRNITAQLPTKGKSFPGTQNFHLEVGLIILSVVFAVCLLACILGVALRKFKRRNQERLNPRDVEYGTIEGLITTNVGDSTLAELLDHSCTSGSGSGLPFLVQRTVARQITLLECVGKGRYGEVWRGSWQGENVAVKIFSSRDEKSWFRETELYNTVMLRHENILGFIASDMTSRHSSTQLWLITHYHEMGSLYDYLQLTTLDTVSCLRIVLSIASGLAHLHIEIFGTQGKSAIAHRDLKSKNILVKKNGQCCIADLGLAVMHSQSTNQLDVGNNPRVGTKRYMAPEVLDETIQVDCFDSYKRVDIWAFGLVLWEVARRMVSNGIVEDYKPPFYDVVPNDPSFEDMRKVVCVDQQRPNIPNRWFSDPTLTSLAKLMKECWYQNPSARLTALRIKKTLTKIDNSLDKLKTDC
Method: as §1

[4] = Stirring double-sink PAMPA permeability; format: in vitro ADME; details: passive diffusion
Method: Parallel Artificial Membrane Permeability Assay (PAMPA) was employed to determine the passive diffusion permeability of LDN-193189 and analogs. Stirring double-sink PAMPA method (pION Inc.) was employed to determine the permeability of compounds. The method was performed as described previously ([Sun et al., 2017]).

ALK3 = molecular target: T3, ALK3 (Mus musculus, UniProt P36895); test: BMP4-stimulated SMAD1/5/8 phosphorylation in C2C12 cells (HTRF); format: cell-based; details: read-out: BMP4 (mediated by ALK3) IC50
T3 construct: determined in C2C12 cell lines (ATCC; Manassas, VA, United States); host or cells: C2C12
Method: as §1

[5] = Metabolite formation in human and mouse liver subcellular fractions (LC/UV/MS, trapping); format: in vitro ADME; details: for cyanide (KCN) adduct: KCN trapping; for metabolism in cytosol incubation (AO-mediated): liver cytosol; for GSH adduct: microsomal incubation with NADPH and GSH, mouse and human; for Species in which the metabolite of Compound 2 was observed / Species in which the metabolite of Compound 3 was observed: H human, M mouse
[6] = Metabolite profiling of LDN-193189 in liver microsomal/cytosolic fractions of six species (LC/UV/MS, GSH and KCN trapping); details: for Species in which the metabolite of LDN-193189 was observed: LDN-193189 10 μM, 60 min, M mouse, R rat, Rb rabbit, D dog, Mo monkey, H human; for metabolite found in rat microsomal incubation with LDN-193189: rat liver microsomes
Method: Total incubation volume per sample was 1 mL. The metabolic reactions were initiated by the addition of cofactors, NADPH-regenerating system and UDPGA, after a pre-incubation at 37°C for 5 min. The incubation mixtures were placed in a shaking water bath at 37°C for 60 min. At the end of the reaction, three volumes of ACN were added, followed by vortexing and centrifugation to remove proteins. The supernatants were transferred to clean tubes and dried completely under a stream of nitrogen at ambient temperature. The dried residues were reconstituted with 500 μL of 25% MeOH in water and transferred into HPLC vials for LC/UV/MS analysis.
Chromatography was accomplished on a Phenomenex Luna, C18 (2) column, 3.0 × 250 mm, 5 μm (Torrance, CA, United States). The column was kept at ambient temperature during sample analysis. The mobile phases were HPLC grade water (solvent A) and ACN (solvent B), both of which contained 0.1% trifluoroacetic acid (TFA). […] The first 4 min of the HPLC flow was diverted to waste prior to evaluation of metabolites.
To facilitate distinction of carbon or heteroatom oxidations, hydrogen/deuterium (H/D) exchange experiments were performed by replacing the aqueous mobile phase (H2O) with D2O while keeping the rest of assay conditions unchanged.
UV absorption spectra from 200 to 400 nm were recorded using a diode array detector. The Thermo Finnigan LTQ XL mass spectrometer was equipped with an electrospray ionization (ESI) interface and operated in positive ionization mode for metabolite profiling and identification. Mass spectra were acquired in full scan (MS) (m/z 200–1000) and data dependent scan (MS^2, MS^3, and MS^4) modes. The ESI spray voltage was +5kV with capillary temperature of 300°C. Sheath gas and auxiliary gas were 80 and 20 arbitrary units, respectively. Activation Q was 0.25 and Activation time 30 ms. The collision energy used to obtain fragments was set at 40 eV.

mouse FOP disease model = test system: mouse FOP disease model; set-up: method as in Yu et al., 2008a; details: ref Yu et al., 2008a; cited from earlier work
[7] = set-up: method as in Cuny et al., 2008; details: mice, intraperitoneal administration; ref Cuny et al., 2008; cited from earlier work
[8] = C2C12 cells, SMAD2/3 phosphorylation, HTRF, read-out: TGFβ (mediated by ALK5) IC50

T3 sequence (P36895 24-532): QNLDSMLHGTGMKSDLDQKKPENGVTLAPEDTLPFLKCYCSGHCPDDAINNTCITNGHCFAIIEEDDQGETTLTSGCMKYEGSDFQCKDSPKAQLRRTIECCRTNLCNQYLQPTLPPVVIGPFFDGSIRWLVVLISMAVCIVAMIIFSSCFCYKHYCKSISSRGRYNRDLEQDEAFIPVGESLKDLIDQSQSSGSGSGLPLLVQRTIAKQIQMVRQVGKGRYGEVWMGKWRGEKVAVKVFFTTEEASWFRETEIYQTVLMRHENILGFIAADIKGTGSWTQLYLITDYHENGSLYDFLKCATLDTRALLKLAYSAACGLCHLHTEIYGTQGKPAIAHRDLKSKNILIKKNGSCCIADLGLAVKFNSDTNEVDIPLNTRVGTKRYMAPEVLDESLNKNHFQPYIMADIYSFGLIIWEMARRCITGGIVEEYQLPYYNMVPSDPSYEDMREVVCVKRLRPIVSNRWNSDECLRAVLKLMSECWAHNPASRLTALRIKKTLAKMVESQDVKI

Cc1cc(-c2cnn3cc(-c4ccc(N5CCNCC5)cc4)cnc23)c2ccccc2n1 [Compound 1]
glucuronide conjugate ([1]; UDPGA-fortified human liver microsomes): No glucuronide conjugate was observed | metabolism in cytosol incubation (AO-mediated) ([1]; human liver cytosol): No metabolism was observed | extent of metabolism in human liver microsomes ([1]; human liver microsomes): metabolized moderately | GSH adduct in trapping experiments ([1]; human liver microsomes, GSH): no GSH or cyanide adduct was detected | cyanide adduct in trapping experiments ([1]; human liver microsomes, KCN): no GSH or cyanide adduct was detected | aniline derivatives ([1]; human microsomal fractions): No aniline derivatives were observed | IC50 (ALK5): 987 nM | half-life at 1 μM [2]: > 30 min | solubility at 6 h [3]: 1 µg/mL (≈ 2.38 µM) | IC50 (ALK2): 120 nM | Papp [4]: 437 ×10⁻⁶ cm/s

c1ccc2c(-c3cnn4cc(-c5ccc(OCCN6CCCCC6)nc5)cnc34)ccnc2c1 [Compound 2]
IC50 (ALK3): 3270 nM | IC50 (ALK5; [8]): 27400 nM | half-life at 1 μM [2]: 22 min | aniline formation [5]: not detected | cyanide (KCN) adduct [5]: not detected | metabolism in cytosol incubation (AO-mediated) [5]: An oxidative metabolite was observed | GSH adduct [5]: observed only in mouse microsomal incubation | solubility at 6 h [3]: < 1 µg/mL | IC50 (ALK2): 227 nM | Papp [4]: 7 ×10⁻⁶ cm/s

Cc1cc(-c2cnn3cc(-c4ccc(OCCN5CCCCC5)nc4)cnc23)c2ccccc2n1 [Compound 3]
IC50 (ALK3): 4340 nM | IC50 (ALK5; [8]): 2660 nM | half-life at 1 μM [2]: > 30 min | aniline formation [5]: Neither aniline formation nor cytosolic metabolism were observed | cyanide (KCN) adduct [5]: No cyanide adduct or glucuronide conjugate was observed | glucuronide conjugate ([5]; UDPGA): No cyanide adduct or glucuronide conjugate was observed | metabolism in cytosol incubation (AO-mediated) [5]: No metabolite formation was observed | GSH adduct [5]: observed only in mouse microsomal incubation | solubility at 6 h [3]: 36.2 µg/mL (≈ 77.9 µM) | IC50 (ALK2): 466 nM | potency against ALK2 mediated signaling compared to LDN-193189 (ALK2; relative to LDN-193189): threefold less potent | Papp [4]: 1070 ×10⁻⁶ cm/s

Nc1ccc(-c2cnc3c(-c4ccnc5ccccc45)cnn3c2)cc1 [Compound M337]
Species in which the metabolite of LDN-193189 was observed [6]: M, Rb, D, Mo, H | metabolite found in rat microsomal incubation with LDN-193189 [6]: not found

NCCNc1ccc(-c2cnc3c(-c4ccnc5ccccc45)cnn3c2)cc1 [Compound M380]
metabolite found in rat microsomal incubation with LDN-193189 [6]: not found

OCCNc1ccc(-c2cnc3c(-c4ccnc5ccccc45)cnn3c2)cc1 [Compound M381]
Species in which the metabolite of LDN-193189 was observed [6]: Rb, D, Mo, H

O=C(O)CNc1ccc(-c2cnc3c(-c4ccnc5ccccc45)cnn3c2)cc1 [Compound M395]
Species in which the metabolite of LDN-193189 was observed [6]: Rb, D, Mo, H

Cc1cc(-c2cnn3cc(-c4ccc(OCCO)nc4)cnc23)c2ccccc2n1 [Compound M397]
Species in which the metabolite of Compound 2 was observed [5]: H, M | Species in which the metabolite of Compound 3 was observed [5]: H, M

Cc1cc(-c2cnn3cc(-c4ccc(OCC(=O)O)nc4)cnc23)c2ccccc2n1 [Compound M411]
Species in which the metabolite of Compound 3 was observed [5]: H, M

O=C1CN(c2ccc(-c3cnc4c(-c5ccnc6ccccc56)cnn4c3)cc2)CCN1 [Compound M420]
Species in which the metabolite of LDN-193189 was observed [6]: M, R, Rb, D, Mo, H

Oc1cc(-c2cnn3cc(-c4ccc(N5CCNCC5)cc4)cnc23)c2ccccc2n1 [Compound M422c]
Species in which the metabolite of LDN-193189 was observed [6]: all species except dog

N#CC1CNCCN1c1ccc(-c2cnc3c(-c4ccnc5ccccc45)cnn3c2)cc1 (stereo not shown) [Compound M431]
Species in which the metabolite of LDN-193189 was observed [6]: M, R, Rb, D, Mo, H

NCCN(CC(=O)O)c1ccc(-c2cnc3c(-c4ccnc5ccccc45)cnn3c2)cc1 [Compound M438]
Species in which the metabolite of LDN-193189 was observed [6]: M, R, Rb, D, Mo, H

N#CC1CNC(=O)CN1c1ccc(-c2cnc3c(-c4ccnc5ccccc45)cnn3c2)cc1 (stereo not shown) [Compound M445]
Species in which the metabolite of LDN-193189 was observed [6]: M, R, Rb, D, Mo, H

O=c1cc(-c2cnn3cc(-c4ccc(OCCN5CCCCC5)nc4)cnc23)c2ccccc2[nH]1 [Compound M466d]
Species in which the metabolite of Compound 2 was observed [5]: H, M

c1ccc2c(-c3cnn4cc(-c5ccc(N6CCNCC6)cc5)cnc34)ccnc2c1 [LDN-193189, reference compound]
efficacy in an animal model of FOP (mouse FOP disease model): efficacious | plasma t1/2 [7]: 96 min | formation of M422c on addition of XO inhibitor allopurinol ([1]; human liver cytosol, allopurinol 0.1 mM): did not result in a change | formation of M422c in the presence of AO inhibitor menadione ([1]; human liver cytosol, menadione 1 mM): reduced | IC50 (ALK3): 585 nM | half-life at 1 μM [2]: > 30 min | solubility at 6 h [3]: 1.1 µg/mL (≈ 2.71 µM) | Papp [4]: 320 ×10⁻⁶ cm/s | glucuronide conjugates ([6]; UDPGA 2 mM): no glucuronide conjugates observed | GSH trapping of reactive metabolites ([6]; liver microsomes from any species, GSH 2 mM): no “soft electrophiles” were produced | rank ordering of the metabolic conversion in liver microsomes ([6]; liver microsomes, no cytosol added): dog > rabbit > mouse > human ∼ monkey > rat | extent of metabolic conversion to M422c, order of species ([6]; liver preparations with cytosol): monkey > rabbit > human > mouse > rat with no conversion observed in dog liver preparations

CN1CCC[C@H]1c1cccnc1 [Nicotine, reference compound]
cyanide adducts in KCN trapping ([6]; liver microsomes, KCN 0.1 mM): produced the expected cyanide derivatives

C[C@]12CC[C@H]3[C@@H](CCC4=CC(=O)CC[C@@]43C)[C@@H]1CC[C@@H]2O [testosterone, reference compound]
metabolite formation of positive control ([1]; human liver microsomes, 100 μM, 20 min): showed the expected metabolite formation
